Assay [1] deals with TNF-α release in THP-1 cells. The experiment in a line: SYK dependent TNF-α release assay (IgG stimulation). The class given is cell-based, human. Conditions: for inhibition at 0.3 µM / inhibition at 1 µM: Homo sapiens; for percentage inhibition of TNF-α release compared with R406: IgG stimulated release. The method, then:
(§1) Compounds of the present invention are tested for their effects on TNF-α release in human acute monocytic leukimia cell line (THP-1) to illustrate potential efficacy at the cellular level. TNF-α is a cytokine involved in systemic inflammation and is a member of a group of cytokines that stimulate the acute phase reaction. The primary role of TNF-α is in the regulation of immune cells. TNF-α is known to induce apoptotic cell death and inflammation and to inhibit early tumorigenesis and viral replication. Dysregulation and, in particular, overproduction of TNF-α have been implicated in a variety of human diseases, autoimmune disease, inflammation, arthritis and cancer.
(§2) Production or release of TNF-α is controlled by type of stimulus to which the cell responds. SYK activity is involved in mediating TNF-α production. When stimulated by IgG, cells increase TNF-α production in a SYK dependent manner (i.e., the SYK dependent pathway). However, when stimulated by lipopolysaccharide (LPS), they produce TNF-α in a SYK independent manner.
Compounds of the invention were tested for their TNF-α release effect on THP-1 cells. For SYK dependent TNF-α release assay (i.e., via IgG stimulation), THP-1 cells derived from human monocytic cells were obtained from the American Type Culture Collection (ATCC, Manassas, Va.). This cell line was maintained with an Roswell Park Memorial Institute (RPMI) medium (GIBCO™) containing 10 fetal bovine serum (FBS; GIBCO™) and 0.05 mM 2-mercaptoethanol. The THP-1 cells were seeded at 1×10^5 cells/100 μL/well into human IgG (10 μg/well, INVITROGENT™)-coated 96 well culture plate, and serially diluted compound was then added. After an 18-hour incubation period at 37° C., supernatants were collected for the determination of the TNF-α level by enzyme-linked immunosorbent assay (ELISA), and the remaining cells were subjected to an MTT (yellow tetrazolium salt) assay to determine the cytotoxic effects of compound.

For assay [2], the system named is TNF-α release in THP-1 cells. The assay can be described thus: SYK independent TNF-α release assay (LPS stimulation). The class given is cell-based. Conditions: Homo sapiens, 18-hour incubation. As to the method: as §1, §2
For SYK independent TNF-α release assay (i.e., via lipopolysaccharide (LPS)-stimulation), THP-1 cells derived from human monocytic cells were obtained from the American Type Culture Collection (ATCC, Manassas, Va.). This cell line was maintained with an RPMI medium (GIBCO™) containing 10 fetal bovine serum (FBS, GIBCO™) and 0.05 mM 2-mercaptoethanol. The THP-1 cells were seeded at 1×10^5 cells/100 μL/well into 96-well culture plates, and treated with lipopolysaccharide (1 μg/ml), and serially diluted compound was then added. After an 18-hour incubation period at 37° C., supernatants were collected for the determination of the TNF-α level by ELISA, and the remaining cells were subjected to an MTT assay to determine the cytotoxic effects.

For another assay, the target named is T1, SYK (Homo sapiens, UniProt P43405).
T1 construct: Purified full-length human SYK, ZAP70, PIM1, PYK2; purchased Carna Biosciences
The assay can be described thus: Kinase inhibition assay: SYK. In kind it is biochemical. As to the method:
(§3) Compounds of the present invention were tested for their capacity to inhibit a kinase panel which includes, but are not limited to, spleen tyrosine kinase (SYK), zeta-chain-associated protein kinase 70 (ZAP70), PTK2B protein tyrosine kinase 2 (PYK2), focal adhesion kinase (FAK), provirus integration of maloney kinase 1 (PIM1), rearranged during transfection kinase (RET), Fms-like tyrosine kinase 3 (FLT3), Janus kinase 2 (JAK2), and leucine-rich repeat kinase 2 (LRRK2).
(§4) Inhibition of SYK, ZAP70, PYK2, FAK, PIM1, RET, FLT3, JAK2 and LRRK2 Kinase Activity
(§5) Compounds of the invention were initially diluted to 10 mM in 100% DMSO (CALBIOCHEM™) for storage and made into kinase buffer solution to create a compound concentration ranging from 1 uM and 10 uM. Serial dilutions of compounds of the invention were dispensed into a 96-well plate (GREINER BIOSCIENCES™) at 6 μL each. Purified full-length human SYK, ZAP70, PIM1, PYK2 and truncated human FAK, RET, FLT3, JAK2, and LRRK2 (CARNA BIOSCIENCES™) were diluted in kinase buffer and added to the compound solutions and pre-incubated for 30 minutes at room temperature (1 hour for PYK2). […] The reaction mixture was incubated for 1 hour (2 hours for PYK2). Following the incubation, the stop solution made with EDTA, water, and Lance detection buffer ([…]™) was added (12μL each) to stop phosphorylation. […] The IC50 value of test compound was calculated at Gradpad Prism 5 unless specified otherwise.

The target of the next assay is T2, FLT3 (Homo sapiens, UniProt P36888).
T2 construct: truncated human FAK, RET, FLT3, JAK2, and LRRK2; purchased Carna Biosciences
T2 sequence (P36888 564-993 limits assumed): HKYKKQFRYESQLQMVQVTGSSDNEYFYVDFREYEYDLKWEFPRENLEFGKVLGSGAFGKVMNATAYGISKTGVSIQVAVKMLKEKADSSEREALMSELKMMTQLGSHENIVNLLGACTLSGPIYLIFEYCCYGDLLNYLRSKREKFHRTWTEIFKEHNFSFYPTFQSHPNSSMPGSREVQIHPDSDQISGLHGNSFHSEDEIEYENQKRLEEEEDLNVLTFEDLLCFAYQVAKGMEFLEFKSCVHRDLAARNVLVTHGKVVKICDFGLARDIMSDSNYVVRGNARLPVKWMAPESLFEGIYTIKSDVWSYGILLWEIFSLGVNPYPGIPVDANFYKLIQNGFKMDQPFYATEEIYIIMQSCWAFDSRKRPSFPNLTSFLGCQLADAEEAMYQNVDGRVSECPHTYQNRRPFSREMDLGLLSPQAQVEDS
The experiment in a line: Kinase inhibition assay: FLT3. The class given is biochemical. The method, then:
as §3, §4, §5

Another assay concerns the target JAK2 (Homo sapiens, UniProt O60674). The experiment in a line: Kinase inhibition assay: JAK2. The class given is biochemical. Also on record: truncated human FAK, RET, FLT3, JAK2, and LRRK2; purchased Carna Biosciences. As to the method:
as §3, §4, §5

Another assay addresses T3, RET (Homo sapiens, UniProt P07949).
T3 construct: truncated human FAK, RET, FLT3, JAK2, and LRRK2; purchased Carna Biosciences
T3 sequence (P07949 658-1114 limits assumed): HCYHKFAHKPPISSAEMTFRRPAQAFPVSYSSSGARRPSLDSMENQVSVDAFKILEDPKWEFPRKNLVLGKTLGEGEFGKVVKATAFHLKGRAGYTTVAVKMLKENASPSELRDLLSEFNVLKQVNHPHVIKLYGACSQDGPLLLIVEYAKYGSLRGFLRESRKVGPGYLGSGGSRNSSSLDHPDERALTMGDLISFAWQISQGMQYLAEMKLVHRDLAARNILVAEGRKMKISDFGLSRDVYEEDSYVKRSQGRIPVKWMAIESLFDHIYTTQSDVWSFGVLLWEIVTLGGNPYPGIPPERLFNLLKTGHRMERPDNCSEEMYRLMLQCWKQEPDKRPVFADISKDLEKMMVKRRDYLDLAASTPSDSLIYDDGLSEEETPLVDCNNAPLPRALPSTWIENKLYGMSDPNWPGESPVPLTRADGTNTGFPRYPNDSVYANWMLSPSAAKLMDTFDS
The assay can be described thus: Kinase inhibition assay: RET. In kind it is biochemical. As to the method: as §3, §4, §5

The next assay has as its system MV4-11 cells. The experiment in a line: Cell viability assay: FLT3-ITD-positive cells. In kind it is cell-based, human. Conditions: for IC50: Homo sapiens, MV4-11, 72-hour incubation, read-out: Viability of FLT3-ITD Induced Cancer Cell Line MV-4-11 (IC50 nM). The method, then: Compounds of the invention were tested for their effects on inhibition of FLT3-ITD in human acute leukemia cell line (MV4-11). FLT3 is primarily expressed in immature hematopoietic progenitor as well as in mature myeloid cells. It belongs to type III receptor tyrosine kinase (RTK) family including KIT, FMS, and PDGFR. It is activated by binding to FL, which leads to increased kinase activity and activation of downstream signaling pathway including STATS, Ras, and PI3Kinase.
Compounds of the invention were tested for cell viability effect on MV4-11 cells. For cell viability assay, MV4-11 cells expressing human FLT3-ITD were obtained from the American Type Culture Collection (ATCC, Manassas, Va.). This cell line was maintained with an Roswell Park Memorial Institute (RPMI) medium (HyClone™) containing 10 bovine calf serum (BCS; Hyclone™) supplemented iron. The MV4-11 cells were seeded at 2×10^4 cells in 96-well culture plates, and serially diluted compound was then added. After a 72-hour incubation period at 37° C., cell viability was measured using the ATPLite 1 step assay (Perkin-Elmer™) that is based on the quantification of ATP from viable cells. CellTiter Aqueous assay (Promega™) was also performed in parallel as an orthogonal assay. IC50 values were calculated using nonlinear regression and defined as the concentration needed for a 50 reduction in luminescence or absorbance treated versus untreated control cells (Prism™ Software).

Setting [3] is: THP-1 cells, IgG stimulation, 0.3 μM, 18-hour incubation.
Where [4] appears, read: THP-1 cells, IgG stimulation, 1 μM, 18-hour incubation.

Structures are written as SMILES. Entries after “also recorded” stand apart in the source; their conditions may differ.

Sequence of JAK2 (O60674 826-1132 limits assumed): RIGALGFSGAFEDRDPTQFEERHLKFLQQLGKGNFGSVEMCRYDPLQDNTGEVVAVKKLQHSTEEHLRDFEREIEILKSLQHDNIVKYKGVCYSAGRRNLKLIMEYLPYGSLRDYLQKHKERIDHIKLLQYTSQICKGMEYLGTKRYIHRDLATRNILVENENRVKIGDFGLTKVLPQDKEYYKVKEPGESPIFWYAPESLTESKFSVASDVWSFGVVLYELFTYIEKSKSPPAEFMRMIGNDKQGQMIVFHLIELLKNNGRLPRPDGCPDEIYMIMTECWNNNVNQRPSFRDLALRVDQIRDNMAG

In the case of `Cc1cc(C)cc(Nc2ncc(F)c(-n3ccc(CN(C)C)c3)n2)c1` [Compound 132, 4-(3-((dimethylamino)methyl)-1H-pyrrol-1-yl)-N-(3,5-dimethylphenyl)-5-fluoropyrimidin-2-amine], the inhibition (usually the drop in the measured response relative to a control, in per cent) at 0.3 µM came to 85.9% in assay [1] (setting [3]) and 3.1% in assay [2]. Moreover, the inhibition at 1 µM in assay [1] (setting [4]) came out at 94.5%; in assay [2], 8.2%. In addition, in assay [1] (0.3 μM), the “percentage inhibition of TNF-α release compared with R406” value is given as “greater that those exhibited by R406”.
As to `Cc1cc(Nc2nccc(-n3cc(CN4CC[C@@H](O)C4)c(C)n3)n2)cc(C)c1OCCN1CCCC1` [Compound 46, (R)-1-((1-(2-(3,5-dimethyl-4-(2-(pyrrolidin-1-yl)ethoxy)phenyl-amino)pyrimidin-4-yl)-3-methyl-1H-pyrazol-4-yl)methyl)pyrrolidin-3-ol], the IC50 (usually the concentration that inhibits the measured activity by half) at SYK stood at 5.9 nM.
For `Cc1cc(C)cc(Nc2ncc(F)c(-n3cc(CN(C)C)c(C)n3)n2)c1` [Compound 77, 4-(4-((dimethylamino)methyl)-3-methyl-1H-pyrazol-1-yl)-N-(3,5-dimethylphenyl)-5-fluoropyrimidin-2-amine], the figures for the inhibition at 0.3 µM in assay [1] (setting [3]) and in assay [2] were 35.3% and 42.2%, respectively. Also, the figures for the inhibition at 1 µM in assay [1] (setting [4]) and in assay [2] were 69.5% and 36%, respectively.
Consider `COc1cc(Nc2ncc(C)c(-n3cc(C)c(CN4CC(OC(=O)C(C)(C)C)C4)c3)n2)cc(OC)c1OC` [Compound 93, 1-((4-methyl-1-(5-methyl-2-(3,4,5-trimethoxyphenylamino)pyrimidin-4-yl)-1H-pyrrol-3-yl)methyl)azetidin-3-yl pivalate], for which the half-maximal inhibitory concentration (IC50) on FLT3 turned out to be 11.7 nM; at JAK2 it was 219 nM; against RET, 76.1 nM; with MV4-11 cells it was 0.6 nM. Moreover, in the assay on MV4-11 cells (FLT3 ITD induced cancer cell line (MV4-11)), the “inhibition level compared with Vandetinib and Sunitinib” value was “greater than those exhibited by Vandetinib and Sunitinib”.
The compound `C[C@@H]1C[C@H]2[C@@H]3CCC4=CC(=O)C=C[C@]4(C)[C@@]3(F)[C@@H](O)C[C@]2(C)[C@@]1(O)C(=O)CO` [Dexamethasone, reference compound] came in with an inhibition at 1 µM in assay [2] of 68.4%.
Regarding `CCN(CC)CCNC(=O)c1c(C)[nH]c(/C=C2\C(=O)Nc3ccc(F)cc32)c1C` [Sunitinib, reference compound], the IC50 with MV4-11 cells was found to be 3.8 nM.
`Cc1cc(C)cc(Nc2ncc(F)c(-n3ccc(CN4CC[C@@H](O)C4)c3)n2)c1` [Compound 133, (R)-1-((1-(2-(3,5-dimethylphenyl-amino)-5-fluoropyrimidin-4-yl)-1H-pyrrol-3-yl)methyl)pyrrolidin-3-ol]: the inhibition at 0.3 µM in assay [1] (setting [3]) came to 86.3%; in assay [2], 13.8%. The results for the inhibition at 1 µM in assay [1] (setting [4]) and in assay [2] were 99.4% and 14.2%, respectively. In addition, the “percentage inhibition of TNF-α release compared with R406” value in assay [1] (0.3 μM) is “greater that those exhibited by R406; also recorded: greater percentage inhibition”.
On to `Cc1cn(-c2ccnc(Nc3ccc4c(ccn4C)c3)n2)cc1CN1CC(O)C1` [Compound 52, 1-((4-methyl-1-(2-(1-methyl-1H-indol-5-ylamino)pyrimidin-4-yl)-1H-pyrrol-3-yl)methyl)azetidin-3-ol], for which, at SYK, inhibition was half-maximal at 3.5 nM (IC50).
For `Cc1cc(C)cc(Nc2ncc(F)c(-n3cc(C)c(CN(C)C)c3)n2)c1` [Compound 80, 4-(3-((dimethylamino)methyl)-4-methyl-1H-pyrrol-1-yl)-N-(3,5-dimethylphenyl)-5-fluoropyrimidin-2-amine], the inhibition at 0.3 µM was 51.5% in assay [1] (setting [3]) and 8.2% in assay [2]. Moreover, the inhibition at 1 µM in assay [1] (setting [4]) stood at 91.1%; in assay [2], 12.5%.
As for `COc1cc(Nc2ncc(F)c(Nc3ccc4c(n3)NC(=O)C(C)(C)O4)n2)cc(OC)c1OC` [Compound R406, R406, reference compound], the “TNF-α Release Inhibition, IgG stimulation, At 0.3 μM” value in assay [1] (setting [3]) is reported as 49.9%. In addition, the “TNF-α Release Inhibition, IgG stimulation, At 1 μM” value in assay [1] (setting [4]) turned out to be 87.4%.

These data come from patent US8629132B2, “Kinase inhibitors” (Genosco, priority 2009, dated 2014).
